# Reference: US11833131B2, “Compositions and methods for treating inflammatory diseases” (priority 2017, dated 2023)
# Columns and labels:
# Format in all cases: cell-based, human
# [1] = system: IL-8 levels in HCT116 cells; test: IL-8 ELISA in TNF-α-treated HCT116 cells; details: for EC50: Homo sapiens, HCT-116, 16 h, read-out: EC50 (anti-inflammatory assay, 50% of activity)
# Description: FIGS. 13A-C depict EC50 dose of fractions on HCT116 cells. (FIG. 13A) Fraction 7 (F7), (FIG. 13B) CBD and (FIG. 13C) THC. Dose-effect curves of F7, CBD or THC on IL-8 levels of HCT116 colon cancer cells. HCT116 cells were seeded (50,000 per well) in triplicate in 500 μL, growing media and incubated for 24 hours at 37° C. in a humidified 5% CO2-95% air atmosphere. Cells were treated with 50 ng/mL TNF-α and F7, CBD or THC for 16 hours. Levels of IL-8 were measured from the supernatant using a commercial kit. Values (ng/mL) were calculated relative to a TNF-α treated control. Non-treated are the cells without TNF-α and treatments. For dose response assays, data points were connected by non-linear regression lines of the sigmoidal dose-response relation. GraphPad Prism was employed to produce dose-response curve and EC50 doses.
# (§1) HCT116 (ATCC CCL-247), HT29 (ATCC HTB-38) and CaCO2 (ATCC HTB-37) colon cells were grown at 37° C. in a humidified 5% CO2-95% air atmosphere. Cells were maintained in McCoy's 5a Modified Medium (HCT116 and HT29) and Dulbecco's modified Eagle's medium (DMEM) supplemented with 10% fetal bovine serum (CaCO2).
# (§2) Cells were seeded, in triplicate, into a 24-well plate at a concentration of 50,000 cells per well in 500 μL, of growing media, and then incubated for 24 hours at 37° C. in a humidified 5% CO2-95% air atmosphere. When cell excitation was performed with TNF-α, cultures in each well were treated with 50-300 ng/mL recombinant human TNF-α (PeproTech, Rocky Hill, N.J., USA) and 50 μL plant extract, as described above (dilution index 57 or 280). The supernatant was taken and the level of IL-8 [12] was measured 4-16 hours post-treatment using the commercial Human CXCL8/IL-8 DuoSet ELISA kit (R&D Systems, Minneapolis, Minn., USA). As a positive control dexamethasone (Sigma-Aldrich, St. Louis, Mo., USA) at 20, 200 and 400 μM final concentration was used.
# The involvement of the receptors (CB1, CB2 and GPR55) was examined by treating the cells with 20 μM of the CB1 receptor antagonist/inverse agonist Rimonabant (Abcam, Cambridge, Mass., USA), CB2 receptor antagonist/inverse agonist SR144528 (Abcam) and GPR55 antagonist/inverse agonist CID16020046 (Sigma-Aldrich, Buchs, Switzerland). […] Cell treatment with purified compounds was performed with CBD (Restek, Pa., USA) at different concentrations (as indicated in each experiment), THCA (THCA-A; Restek) at a final concentration of 0.2 mM and THC (Restek) at a final concentration of as indicated in each experiment mM to confirm the activity of each cannabinoid.
# For dose response assays, data points were connected by non-linear regression lines of the sigmoidal dose-response relation. GraphPad Prism (version 6 for windows, GraphPad software Inc. San Diego, USA) was employed to produce dose-response curves and IC50 doses were calculated using nonlinear regression analysis.
# HCT116 cells = test: Cell viability, Alamar Blue (Resazurin assay), HCT116
# Description: HCT116 cells were seeded (50,000 per well) in triplicate in 500 μL growing media and incubated for 24 hours at 37° C. in a humidified 5% CO2-95% air atmosphere. […] Following, the cells were incubated with Alamar Blue for 4 hours. Relative fluorescence at the excitation/emission of 544/590 nm was measured. Values were calculated as percentage of live cells relative to the non-treated (cells without TNF-α and treatments) control after reducing the auto fluorescence of Alamar Blue without cells (n=3). […] HCT116 cells were seeded (50,000 per well) in triplicate in 500 μL, growing media and incubated for 24 hours at 37° C. in a humidified 5% CO2-95% air atmosphere. […] Relative fluorescence at the excitation/emission of 544/590 nm was measured. Values were calculated as percentage of live cells relative to the non-treated (cells without TNF-α and treatments) control after reducing the auto fluorescence of Alamar Blue without cells (n=3). […]
# Resazurin (R&D Systems) was used to check the cytotoxic effect of extracts. […] Supernatant (100 μL from each well) was transferred to a 96-well plate and the relative fluorescence at the excitation/emission of 544/590 nm was measured. The number of live cells was calculated with a linear standard concentrate curve built by seeding different concentrations of cells in 24-well plates treated with Resazurin. […]
# [2] = system: GPR55 gene expression in HCT-116 cells; test: GPR55 gene expression (qPCR) in HCT-116 cells after TNF-α; details: HCT-116, overnight treatment with TNF-α vs non-treated; ratio to GAPDH, 2-ΔΔCT
# Description: (§3) Cells were seeded into a 6-well plate at a concentration of 1,500,000 cell/mL per well. After 24 hours incubation at 37° C. in a humidified 5% CO2-95% air atmosphere, cells were treated with TNF-α (final concentration of 1 ng/mL) and incubated overnight under the same conditions. Non-treated cells or cells treated only with TNF-α served as negative and positive controls, respectively. […] The next day, cells were harvested and total RNA was extracted using TRI reagent (Sigma-Aldrich) according to the manufacturer's protocol. For biopsies, all treatments were added overnight, after which the biopsies were stored at −20° C. in RNA Save solution (Biological Industries, Beit Haemek, Israel). RNA was extracted from frozen biopsies. Tissue samples were homogenized with an appropriate homogenizer in TRI reagent, as done for the cells. RNA (50 ng for biopsies: four UC patients and one CD patient) or 2.5 μg (for cells) was reverse-transcribed in a total volume of 20 μL using Maxima reverse transcriptase (Thermo Scientific, Boston, Mass., USA) according to the manufacturer's protocol. […] The expression of each target gene was normalized to the expression of GAPDH mRNA in the 2-ΔΔCt and is presented as the ratio of the target gene to GAPDH mRNA, expressed as 2-ΔCt, where Ct is the threshold cycle and ΔCt=Ct Target−Ct GAPDH. […]
# (§4) Transcripts for CB1, CB2 and GPR55 were detected by qPCR in HCT116 cells.
# [3] = system: CB1 gene expression in HCT-116 cells; test: CB1 gene expression (qPCR) in HCT-116 cells after TNF-α; details: HCT-116, overnight treatment with TNF-α vs non-treated; ratio to GAPDH, 2-ΔΔCT
# Description: as §3, §4
# [4] = system: CB2 gene expression in HCT-116 cells; test: CB2 gene expression (qPCR) in HCT-116 cells after TNF-α; details: HCT-116, overnight treatment with TNF-α vs non-treated; ratio to GAPDH, 2-ΔΔCT
# Description: as §3, §4
# [5] = system: IL-8 levels in CaCO2 cells; test: IL-8 ELISA in TNF-α-treated CaCO2 cells; details: CaCO2, 300 ng/mL TNF-α, 4 hours
# Description: as §1, §2
# CaCO2 cells = test: Cell viability, Alamar Blue (Resazurin assay), CaCO2; details: CBD 16-252 μg/mL
# Description: (§5) Resazurin (R&D Systems) was used to check the cytotoxic effect of extracts. For this, 10% Resazurin was added to each well of the treatments with different dilution. Then the plate was incubated for 2-4 hours at 37° C. in a humidified 5% CO2-95% air atmosphere. Supernatant (100 μL from each well) was transferred to a 96-well plate and the relative fluorescence at the excitation/emission of 544/590 nm was measured. The number of live cells was calculated with a linear standard concentrate curve built by seeding different concentrations of cells in 24-well plates treated with Resazurin. Values were calculated as percentage of live cells relative to the non-treated (cells without TNF-α and treatments) control after reducing auto-fluorescence of Alamar Blue without cells.
# HT29 cells = test: Cell viability, Alamar Blue (Resazurin assay), HT29; details: CBD 16-252 μg/mL, relative to HCT116 and CaCO2
# Description: as §5
# [6] = system: IL-8 levels in HT29 cells; test: IL-8 ELISA in TNF-α-treated HT29 cells, incl. F7/THCA + CBD combinations (Bliss model); details: for dose response of IL-8 levels: HT29, after 4 hours of treatment, F7 5-80 μg/ml, CBD 5-80 μM, THC 12.5-75 μM
# Description: as §1, §2
# In order to examine if there is a synergy between CBD and F7, ELISA assay was used to measure the anti-inflammatory activity of the fractions on HCT116 cells. Cells were seeded into a 24-well plates at 50,000 cells per well in triplicate in normal growing media. After 24 hours of incubation at 37° C. in a humidified 5% CO2-95% air atmosphere, cells were treated with different concentration of F7 (5 μg/mL to 80 μg/mL) with and without CBD (30 μM) along with 300 ng/mL of TNF-α or with different concentration of CBD (5 μM to 120 μM) with and without F7 (30 μg/mL) along with 300 ng/mL of TNF-α for 4 hours. Following, the supernatant was taken and the levels of IL-8 were measured using the commercial Human CXCL8/IL-8 DuoSet ELISA kit (R&D Systems, Minneapolis, Minn., USA). Resazurin (R&D Systems) was used to check the cytotoxic effect of extracts.
# Drug synergy was determined by Bliss independence drug interaction model which is defined by the following equation: Exy=Ex+Ey−(ExEy)
# Where (Exy) is the additive effect of the drug x and y as predicted by their individual effects (Ex and Ey). For calculation purpose, in this paper, the drug's anti-cancer effect was defined as complementary to the obtained results (1−Exy). The observed combined percentage viability is then compared to the calculated value. If the observed value of Exy is greater than the calculated Exy value, the combination treatment is considered as worse than expected, which means antagonism effect. If the observed value is less than the calculated one, then the combination treatment is considered as better than expected, thus showing synergism effect. […]
compound,measurement,setting,value
"CCCCCc1cc2c(c(O)c1C(=O)O)C1C=C(C)CCC1C(C)(C)O2 (stereo not drawn) [THCA, Δ9-tetrahydrocannabinolic acid]",reduction of IL-8 levels,"[1]; HCT116, 50 ng/mL TNF-α, 16 hours, 0.2 mM THCA, F7 diluted 280-fold to correspond to 0.2 mM THCA",significantly reduced IL-8 levels
SR144528,HCT116 cell proliferation,HCT116 cells; antagonist 20 μM,Significantly Increases HCT116 Cell Proliferation
TNF-α,"Mean relative expression, GPR55",[2],5.26
same,"Mean relative expression, CB1",[3],1.31
same,"Mean relative expression, CB2",[4],5.84
Cc1ccc(-c2n[nH]c3c2C(c2cccc(O)c2)N(c2ccc(C(=O)O)cc2)C3=O)cc1 (stereo not drawn) [CID16020046],IL-8 level in control,"[1]; HCT116, antagonist 20 μM alone, without fractions",did not change IL-8 level
"C=C(C)[C@@H]1CCC(C)=C[C@H]1c1c(O)cc(CCCCC)cc1O [CBD, cannabidiol]",anti-inflammatory activity (IL-8 level),[5],active in reduction of IL-8 levels
same,anti-inflammatory activity (IL-8),"[1]; HCT116, higher CBD concentrations",no anti-inflammatory activity
same,EC50,[1],30.4 µM
same,reduction in IL-8 levels,"[1]; purified CBD 16-252 μg/mL, lower concentrations of CBD",reduction in IL-8 levels
same,cell death,HCT116 cells; CBD 16-252 μg/mL,dose-dependent cell death
same,cell death,CaCO2 cells,dose-dependent cell death
same,cell death,HT29 cells,to a lesser extent
same,anti-inflammatory activity (IL-8 level),"[6]; HT29, 300 ng/mL TNF-α, 4 hours",active in reduction of IL-8 levels
same,dose response of IL-8 levels,[6],dose dependent reduction of IL-8 levels
same,IL-8 level at low concentrations,"[6]; HT29, CBD below 20 μM",significant decrease in the IL-8 level
"CCCCCc1cc(O)c2c(c1)OC(C)(C)[C@@H]1CCC(C)=C[C@@H]21 [THC, Δ9-tetrahydrocannabinol]",EC50,[1],102 µM
same,dose response of IL-8 levels,[6],dose dependent reduction of IL-8 levels
